The values below come from publication PMC12965331 (Biochemistry, 2025).

In test [1] the target is HNMT (Homo sapiens, UniProt P50135). As to the kind of experiment: HNMT specificity screen. Format: biochemical.
Test [2] deals with RNase H (Escherichia coli, UniProt P0A7Y4).
Test [3] addresses NSP10–14 ExoN (Severe acute respiratory syndrome coronavirus 2, UniProt P0DTD1). The class given is biochemical, SARS-CoV-2.
Test [4] deals with NSP14 ExoN. The conditions noted are these: cited from earlier work.

Chain of RNase H (P0A7Y4 whole entry): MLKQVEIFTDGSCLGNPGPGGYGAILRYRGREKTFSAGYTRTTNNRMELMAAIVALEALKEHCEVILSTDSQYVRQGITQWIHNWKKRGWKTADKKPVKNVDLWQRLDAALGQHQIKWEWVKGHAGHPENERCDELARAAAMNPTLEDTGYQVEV
Chain of HNMT (P50135 whole entry): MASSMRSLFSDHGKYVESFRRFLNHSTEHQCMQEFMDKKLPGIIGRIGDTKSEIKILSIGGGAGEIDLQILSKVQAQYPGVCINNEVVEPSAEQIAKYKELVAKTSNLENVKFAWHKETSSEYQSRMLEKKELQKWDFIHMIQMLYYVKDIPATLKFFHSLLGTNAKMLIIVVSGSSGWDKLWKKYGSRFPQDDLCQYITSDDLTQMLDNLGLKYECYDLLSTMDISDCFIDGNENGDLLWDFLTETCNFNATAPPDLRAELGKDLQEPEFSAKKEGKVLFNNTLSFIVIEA

With `CC(=O)N1CCN(c2ccc(C(=O)N3CCN(Cc4ccccc4)CC3)nn2)C(=O)C1` [NCGC00537446], in test [1], the “activity against HNMT (off-target)” value is “some activity”. For the same compound, in test [2], the “activity against RNase H (off-target)” value was “some activity”; the “potency difference between NSP14 ExoN and RNase H” value is on record as “greater than 10 fold”. Further, in test [3], the “effect on VMAX, ExoN RNA substrate” value was “more clearly influenced” and the “mechanism of inhibition with respect to ExoN RNA substrate” value was “noncompetitive”. In test [3] (concentrations below 2 μM of compound), the “change in KM for ExoN RNA substrate” value is reported as “no significant change”.

Consider `O=C1C=C2C(=CCOC2O)O1` (stereo not shown) [Patulin], for which the “inhibition of NSP14 ExoN activity, affinity” value in test [4] is recorded as “micromolar affinity”.
